Values quoted from earlier work as cited in US20050238693A1, “Process for the preparation and activation of susbstances and a means of producing same” (priority 2002, published 2005).

Test system: bone loss
Conditions: 400 mg dose twice a day; women relatively soon after menopause

For `[Ca]` [Calcium], the “bone loss and bone density in spine, femoral neck and radial shaft” value is listed as “avert bone loss and stabilized bone density”.
